# Patent US12396936B2, “Antimicrobial composition for tackling malodour” (Conopco, Inc., priority 2020, dated 2025)
# System: S. hominis ATCC 27844
# Test: Malodour assay using Lead acetate method (H2S blackening of lead acetate paper, ΔE by reflectometer)
# Format: cell-based
# Settings: active wt % as printed per example; TSB with 0.1% L-cysteine-HCl, 37° C. overnight, triplicates; calculated from ΔE; control = 100
# Description: The actives as shown in Table—1 below were subjected to malodour reduction assay as described below: • Malodour assay using Lead acetate method: Preparation of Bacterial Culture:
# The test organisms was grown on TSA (Tryptic Soya Agar) plates overnight (22±2 hr). The organism was not more than 3 passages removed from the original source. The cell number was adjusted by re-suspending it in a suitable amount of physiological saline sufficient to achieve the required cell number based on optical density of the cells. The optical density (OD at 620 nm) of the cells were standardized to the cell number for the test organism using a spectrophotometer. A minimum final suspension of 1.0×10^8 CFU/mL was achieved by adjusting the OD to 0.2 in saline for the malodour assay.
# A 1% Lead acetate solution was made in distilled water. […]
# The malodour assay was adapted from the method of Moore et al, 2003 and modified into a 96 well plate format. […] The intensity of the colour was recorded using a reflectometer as L*a*b* values.
# The difference between the initial and final L*a*b* values ΔE, was used to quantify malodour formation.) ΔE=√{square root over ((Li−Lf)^2+(ai−af)^2+(bi−bf)^2)}
# The percentage malodour was calculated from ΔE measured using the above assay for the various actives or combinations.
compound,measurement,value
"CCCCCCc1ccc(O)cc1O [B, Hexyl resorcinol]",Malodour generation (%),96%
